From US20070219236A1, “Dialkoxy-Imidazopyridines Derivatives” (Atlanta Pharma AG, priority 2004, published 2007)

system: pentagastrin-stimulated acid secretion of the perfused rat stomach; test: Secretion-inhibiting action on the perfused rat stomach (pentagastrin-stimulated acid secretion); type: in vivo; conditions: anesthetized CD rat, female; dose 2 μmol/kg i.d. (intraduodenal); pentagastrin 1 μg/kg i.v. continuous infusion
Description: Testing of the Secretion-Inhibiting Action on the Perfused Rat Stomach
In Table A which follows, the influence of the compounds according to the invention on the pentagastrin-stimulated acid secretion of the perfused rat stomach after intraduodenal administration in vivo is shown.
The abdomen of anesthetized rats (CD rat, female, 200-250 g; 1.5 g/kg i.m. urethane) was opened after tracheotomy by a median upper abdominal incision and a PVC catheter was fixed transorally in the esophagus and another via the pylorus such that the ends of the tubes just projected into the gastric lumen. The catheter leading from the pylorus led outward into the right abdominal wall through a side opening.
After thorough rinsing (about 50-100 ml), warm (37° C.) physiological NaCl solution was continuously passed through the stomach (0.5 ml/min, pH 6.8-6.9; Braun-Unita I). The pH (pH meter 632, glass electrode EA 147; Φ=5 mm, Metrohm) and, by titration with a freshly prepared 0.01N NaOH solution to pH 7 (Dosimat 665 Metrohm), the secreted HCl were determined in the effluent in each case collected at an interval of 15 minutes.
The gastric secretion was stimulated by continuous infusion of 1 μg/kg (=1.65 ml/h) of i.v. pentagastrin (left femoral vein) about 30 min after the end of the operation (i.e. after determination of 2 preliminary fractions). The substances to be tested were administered intraduodenally in a 2.5 ml/kg liquid volume 60 min after the start of the continuous pentagastrin infusion.
The body temperature of the animals was kept at a constant 37.8-38° C. by infrared irradiation and heat pads (automatic, stepless control by means of a rectal temperature sensor).

| SMILES | Inhibition of acid secretion (%) |
| --- | --- |
| COc1ccc2nc([S+]([O-])Cc3nccc(OC)c3OC)[nH]c2n1 (stereo not drawn) [Example 1, 2-(3,4-Dimethoxy-pyridine-2-ylmethanesulfinyl)-5-methoxy-3H-imidazo[4,5-b]pyridine] | >50 |
| COc1ccc2nc([S@@+]([O-])Cc3nccc(OC)c3OC)[nH]c2n1 [Example 2, (S)-2-(3,4-Dimethoxy-pyridine-2-ylmethanesulfinyl)-5-methoxy-3H-imidazo[4,5-b]pyridine] | >50 |
| COc1ccc2nc([S@+]([O-])Cc3nccc(OC)c3OC)[nH]c2n1 [Example 3, (R)-2-(3,4-Dimethoxy-pyridine-2-ylmethanesulfinyl)-5-methoxy-3H-imidazo[4,5-b]pyridine] | >50 |
